{
  "source": "patent US9827234B1",
  "about": "“Dose-dumping resistant controlled release dosage form” (OSMOTICA KERESKEDELMI ES SZOLGALTATO KFT, priority 2017, dated 2017)",
  "origin": "cited, not measured here",
  "key": {"[1]": {"conditions": "5 mg 3× daily, rapid release tablet"}},
  "data": [
    {"smiles": "COC(=O)C(c1ccccc1)C1CCCCN1", "note": "(centres unmarked) [Methylphenidate, methyl 2-phenyl-2-(piperidin-2-yl)acetate]", "values": [
      {"measurement": "Cmax", "setting": "[1]", "result": "4.2 ± 1.0", "unit": "ng/mL"},
      {"measurement": "Tmax", "setting": "[1]", "result": "6.5 ± 1.8", "unit": "h"},
      {"measurement": "T½", "setting": "[1]", "result": "3.0 ± 0.5", "unit": "h"},
      {"measurement": "enhance the bioavailability of MPH", "setting": "consuming alcohol (ethanol), Patrick et al. 2007", "result": "up to 40%"},
      {"measurement": "plasma half-life", "setting": "in vivo", "result": "2 to 3", "unit": "h"}
    ]}
  ]
}
